Patent US10323007B1, “N2N N4-disubstituted quinazoline-2,4-diamines and uses thereof” (University of South Florida, priority 2016, dated 2019)
Values after ≈ are worked out from the molar mass of the structure shown.

System: A. baumannii 1650
Assay: MIC assay, strain 1650
Format: cell-based, Acinetobacter baumannii
Settings: Acinetobacter baumannii; strain 1650; Tables 1, 3, 4, 5 and footnotes; read-out: 1650 MIC
Experimental: (§1) MIC and MBC assays were performed in this study as documented by us previously.^17,23,24,25 The A. baumannii strains used are detailed in Table 7.

Row | SMILES | MIC [µM]
1 | CNc1nc(NCc2ccccc2)c2ccc(Cl)cc2n1 [Compound 13, N^4-Benzyl-7-chloro-N^2-methylquinazoline-2,4-diamine] | > 50
2 | CNc1nc(NCc2ccccc2)c2ccc(Br)cc2n1 [Compound 14, N^4-Benzyl-7-bromo-N^2-methylquinazoline-2,4-diamine] | > 50
3 | CNc1nc(NCc2ccccc2)c2ccc(C)cc2n1 [Compound 15, N^4-Benzyl-N^2,7-dimethylquinazoline-2,4-diamine] | > 50
4 | CNc1nc(NCCc2ccccc2)nc2ccccc12 [Compound 16, N^4-Methyl-N^2-phenethylquinazoline-2,4-diamine] | > 50
5 | CNc1nc(NCCc2ccccc2)nc2ccc(Cl)cc12 [Compound 17, 6-Chloro-N^4-methyl-N^2-phenethylquinazoline-2,4-diamine] | > 50
6 | CNc1nc(NCCc2ccccc2)nc2ccc(OC)cc12 [Compound 18, 6-Methoxy-N^4-methyl-N^2-phenethylquinazoline-2,4-diamine] | > 50

System: A. baumannii 1403
Assay: MIC assay, strain 1403
Format: cell-based, Acinetobacter baumannii
Settings: Acinetobacter baumannii; strain 1403; Tables 1, 3, 4, 5 and footnotes; read-out: 1403 MIC
Experimental: as §1

Row | SMILES | MIC [µM]
7 | CNc1nc(NCc2ccccc2)c2ccc(Cl)cc2n1 [Compound 13, N^4-Benzyl-7-chloro-N^2-methylquinazoline-2,4-diamine] | > 50
8 | CNc1nc(NCc2ccccc2)c2ccc(Br)cc2n1 [Compound 14, N^4-Benzyl-7-bromo-N^2-methylquinazoline-2,4-diamine] | > 50
9 | CNc1nc(NCc2ccccc2)c2ccc(C)cc2n1 [Compound 15, N^4-Benzyl-N^2,7-dimethylquinazoline-2,4-diamine] | > 50
10 | CNc1nc(NCCc2ccccc2)nc2ccccc12 [Compound 16, N^4-Methyl-N^2-phenethylquinazoline-2,4-diamine] | > 50
11 | CNc1nc(NCCc2ccccc2)nc2ccc(Cl)cc12 [Compound 17, 6-Chloro-N^4-methyl-N^2-phenethylquinazoline-2,4-diamine] | > 50
12 | CNc1nc(NCCc2ccccc2)nc2ccc(OC)cc12 [Compound 18, 6-Methoxy-N^4-methyl-N^2-phenethylquinazoline-2,4-diamine] | > 50

System: A. baumannii 1646
Assay: MIC assay, strain 1646
Format: cell-based, Acinetobacter baumannii
Settings: Acinetobacter baumannii; strain 1646; Tables 1, 3, 4, 5 and footnotes; read-out: 1646 MIC
Experimental: as §1

Row | SMILES | MIC [µM]
13 | CNc1nc(NCc2ccccc2)c2ccc(Cl)cc2n1 [Compound 13, N^4-Benzyl-7-chloro-N^2-methylquinazoline-2,4-diamine] | 4 (≈ 1.2 µg/mL)
14 | CNc1nc(NCc2ccccc2)c2ccc(Br)cc2n1 [Compound 14, N^4-Benzyl-7-bromo-N^2-methylquinazoline-2,4-diamine] | 4 (≈ 1.37 µg/mL)
15 | CNc1nc(NCc2ccccc2)c2ccc(C)cc2n1 [Compound 15, N^4-Benzyl-N^2,7-dimethylquinazoline-2,4-diamine] | 12 (≈ 3.34 µg/mL)
16 | CNc1nc(NCCc2ccccc2)nc2ccccc12 [Compound 16, N^4-Methyl-N^2-phenethylquinazoline-2,4-diamine] | 12 (≈ 3.34 µg/mL)
17 | CNc1nc(NCCc2ccccc2)nc2ccc(Cl)cc12 [Compound 17, 6-Chloro-N^4-methyl-N^2-phenethylquinazoline-2,4-diamine] | 2 (≈ 0.626 µg/mL)
18 | CNc1nc(NCCc2ccccc2)nc2ccc(OC)cc12 [Compound 18, 6-Methoxy-N^4-methyl-N^2-phenethylquinazoline-2,4-diamine] | 4 (≈ 1.23 µg/mL)

System: A. baumannii 1649
Assay: MIC assay, strain 1649
Format: cell-based, Acinetobacter baumannii
Settings: Acinetobacter baumannii; strain 1649; Tables 1, 3, 4, 5 and footnotes; read-out: 1649 MIC
Experimental: as §1

Row | SMILES | MIC [µM]
19 | CNc1nc(NCc2ccccc2)c2ccc(Cl)cc2n1 [Compound 13, N^4-Benzyl-7-chloro-N^2-methylquinazoline-2,4-diamine] | > 50
20 | CNc1nc(NCc2ccccc2)c2ccc(Br)cc2n1 [Compound 14, N^4-Benzyl-7-bromo-N^2-methylquinazoline-2,4-diamine] | > 50
21 | CNc1nc(NCc2ccccc2)c2ccc(C)cc2n1 [Compound 15, N^4-Benzyl-N^2,7-dimethylquinazoline-2,4-diamine] | > 50
22 | CNc1nc(NCCc2ccccc2)nc2ccccc12 [Compound 16, N^4-Methyl-N^2-phenethylquinazoline-2,4-diamine] | > 50
23 | CNc1nc(NCCc2ccccc2)nc2ccc(Cl)cc12 [Compound 17, 6-Chloro-N^4-methyl-N^2-phenethylquinazoline-2,4-diamine] | > 50
24 | CNc1nc(NCCc2ccccc2)nc2ccc(OC)cc12 [Compound 18, 6-Methoxy-N^4-methyl-N^2-phenethylquinazoline-2,4-diamine] | > 50

System: A. baumannii 1651
Assay: MIC assay, strain 1651
Format: cell-based, Acinetobacter baumannii
Settings: Acinetobacter baumannii; strain 1651; Tables 1, 3, 4, 5 and footnotes; read-out: 1651 MIC
Experimental: as §1

Row | SMILES | MIC [µM]
25 | CNc1nc(NCc2ccccc2)c2ccc(Cl)cc2n1 [Compound 13, N^4-Benzyl-7-chloro-N^2-methylquinazoline-2,4-diamine] | > 50
26 | CNc1nc(NCc2ccccc2)c2ccc(Br)cc2n1 [Compound 14, N^4-Benzyl-7-bromo-N^2-methylquinazoline-2,4-diamine] | > 50
27 | CNc1nc(NCc2ccccc2)c2ccc(C)cc2n1 [Compound 15, N^4-Benzyl-N^2,7-dimethylquinazoline-2,4-diamine] | > 50
28 | CNc1nc(NCCc2ccccc2)nc2ccccc12 [Compound 16, N^4-Methyl-N^2-phenethylquinazoline-2,4-diamine] | > 50
29 | CNc1nc(NCCc2ccccc2)nc2ccc(Cl)cc12 [Compound 17, 6-Chloro-N^4-methyl-N^2-phenethylquinazoline-2,4-diamine] | > 50
30 | CNc1nc(NCCc2ccccc2)nc2ccc(OC)cc12 [Compound 18, 6-Methoxy-N^4-methyl-N^2-phenethylquinazoline-2,4-diamine] | > 50

System: A. baumannii
Assay: MIC assay, A. baumannii isolates (strain not given)
Format: cell-based, Acinetobacter baumannii
Settings: Acinetobacter baumannii; strain not given; read-out: MIC
Experimental: as §1

Row | SMILES | MIC [µM]
31 | CNc1nc(NCCc2ccccc2)nc2ccc(Cl)cc12 [Compound 17, 6-Chloro-N^4-methyl-N^2-phenethylquinazoline-2,4-diamine] | 2 to 4 (≈ 0.626 to 1.25 µg/mL)
32 | CNc1nc(NCCc2ccccc2)nc2ccc(OC)cc12 [Compound 18, 6-Methoxy-N^4-methyl-N^2-phenethylquinazoline-2,4-diamine] | 2 to 4 (≈ 0.617 to 1.23 µg/mL)

Same assay, conditions: MIC comparison

Row | SMILES | fold more active than the benzyl analogue 8 [fold]
33 | CNc1nc(NCCc2ccccc2)nc2ccccc12 [Compound 16, N^4-Methyl-N^2-phenethylquinazoline-2,4-diamine] | 4

System: A. baumannii 1652
Assay: MIC assay, strain 1652
Format: cell-based, Acinetobacter baumannii
Settings: Acinetobacter baumannii; strain 1652; Tables 1, 3, 4, 5 and footnotes; read-out: 1652 MIC
Experimental: as §1

Row | SMILES | MIC [µM]
34 | CNc1nc(NCc2ccccc2)c2ccc(Cl)cc2n1 [Compound 13, N^4-Benzyl-7-chloro-N^2-methylquinazoline-2,4-diamine] | > 50
35 | CNc1nc(NCc2ccccc2)c2ccc(Br)cc2n1 [Compound 14, N^4-Benzyl-7-bromo-N^2-methylquinazoline-2,4-diamine] | > 50
36 | CNc1nc(NCc2ccccc2)c2ccc(C)cc2n1 [Compound 15, N^4-Benzyl-N^2,7-dimethylquinazoline-2,4-diamine] | > 50
37 | CNc1nc(NCCc2ccccc2)nc2ccccc12 [Compound 16, N^4-Methyl-N^2-phenethylquinazoline-2,4-diamine] | > 50
38 | CNc1nc(NCCc2ccccc2)nc2ccc(Cl)cc12 [Compound 17, 6-Chloro-N^4-methyl-N^2-phenethylquinazoline-2,4-diamine] | > 50
39 | CNc1nc(NCCc2ccccc2)nc2ccc(OC)cc12 [Compound 18, 6-Methoxy-N^4-methyl-N^2-phenethylquinazoline-2,4-diamine] | > 50
